The source of these data is article PMC11448502, “Cryo-EM structures of the human P2X1 receptor reveal subtype-specific architecture and antagonism by supramolecular ligand-binding” (Nature Communications, 2024).

Positions count from the first letter of the chain named. Values joined by “and” are separate entries in the source; they are usually repeats but may differ in a detail not shown here. Equal values may be shown once.

Common to all, as to test: NF449 inhibition dose response (IC50), TEVC in oocytes
Common to all, as to format: cell-based

One experiment concerns the target T1, hP2X1 K136A (Homo sapiens, UniProt P51575, K136A).
T1 construct: hP2X1 mRNA that was made from linearized full-length wild-type or mutant pcDNA 3.1x; expressed in transfected cells; host or cells: Xenopus laevis oocytes (mRNA injection)
T1 sequence (P51575 1-399 K136A): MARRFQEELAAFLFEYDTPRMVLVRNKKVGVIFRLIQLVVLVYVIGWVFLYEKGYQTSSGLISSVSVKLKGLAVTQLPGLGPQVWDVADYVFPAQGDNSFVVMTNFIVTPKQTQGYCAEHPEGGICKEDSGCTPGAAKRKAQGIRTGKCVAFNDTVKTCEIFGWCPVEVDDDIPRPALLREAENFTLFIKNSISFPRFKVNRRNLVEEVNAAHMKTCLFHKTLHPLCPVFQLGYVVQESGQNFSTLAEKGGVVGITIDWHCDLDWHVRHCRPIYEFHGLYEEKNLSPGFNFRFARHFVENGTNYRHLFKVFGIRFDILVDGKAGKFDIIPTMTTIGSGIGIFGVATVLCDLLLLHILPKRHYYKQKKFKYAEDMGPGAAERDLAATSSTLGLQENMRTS
Particulars: for Normalized Current: hP2X1 K136A. The method, then: (§1) Oocytes were purchased defolliculated from Ecocyte Bioscience in Barth’s Solution (88 mM NaCl, 1 mM KCl, 0.82 mM MgSO4, 0.33 mM Ca(NO3)2, 0.41 mM CaCl2, 2.4 mM NaHCO3, 5 mM Tris-HCl) supplemented with penicillin (100 U/mL) and streptomycin (100 µg/mL). Xenopus laevis oocytes were then injected with 50 nL of 100 ng/μL hP2X1 mRNA that was made from linearized full-length wild-type or mutant pcDNA 3.1x according to the protocol provided in the mMessage mMachine kit (Invitrogen). Injected oocytes were allowed to express for ~20 hours at 18 °C before recording was performed.
(§2) Data acquisition was performed using the Oocyte Clamp OC-725C amplifier and pClamp 8.2 software. Buffers were applied using a gravity fed RSC-200 Rapid Solution Changer that flows at ~5 mL/min. All experiments use Sutter filamented glass 10 cm in length with an inner diameter of 0.69 mm and an outer diameter of 1.2 mm to impale oocytes and clamp the holding voltage at −60 mV. Experiments were recorded in buffer containing 10 mM HEPES (pH 7.4), 140 mM NaCl, 5 mM KCl, 2 mM CaCl2, 2 mM MgCl2, and 10 mM glucose.
(§3) To test a dilution series of an antagonist at discrete concentrations, 10 µM ATP (2 mM ATP for K309A only) was first applied to evoke an initial maximum current. The oocyte was then washed with buffer for one minute, followed by one minute application of an antagonist test-concentration, and concluded by co-application of the same test concentration with 10 µM ATP (2 mM ATP for K309A). The antagonized signal was then normalized against the initial ATP excitatory signal. Each test concentration was performed in triplicate across different oocytes. The data was then fit to a nonlinear regression named “[inhibitor] vs. response – Variable slope (four parameters)” in Prism 9 to produce a sigmoidal curve and afford an IC50 value. Each singular condition was used to generate an average which is reported plus or minus its standard deviation between three discrete trials.

The target of another experiment is T2, hP2X1 K136A/R139A (Homo sapiens, UniProt P51575, K136A/R139A).
T2 construct: hP2X1 mRNA that was made from linearized full-length wild-type or mutant pcDNA 3.1x; expressed in transfected cells; host or cells: Xenopus laevis oocytes (mRNA injection)
T2 sequence (P51575 1-399 K136A/R139A): T1 sequence (P51575 1-399 K136A) with R139A
Particulars: for Normalized Current: hP2X1 K136A/R139A. Here is the method: as §1, §2, §3

The next experiment addresses T3, hP2X1 K309A (Homo sapiens, UniProt P51575, K309A).
T3 construct: hP2X1 mRNA that was made from linearized full-length wild-type or mutant pcDNA 3.1x; expressed in transfected cells; host or cells: Xenopus laevis oocytes (mRNA injection)
T3 sequence (P51575 1-399 K309A): T1 sequence (P51575 1-399 K136A) with A136K, K309A
Particulars: for Normalized Current: hP2X1 K309A. Here is the method: as §1, §2, §3

The target in a further experiment is T4, hP2X1 N184A (Homo sapiens, UniProt P51575, N184A).
T4 construct: hP2X1 mRNA that was made from linearized full-length wild-type or mutant pcDNA 3.1x; expressed in transfected cells; host or cells: Xenopus laevis oocytes (mRNA injection)
T4 sequence (P51575 1-399 N184A): T1 sequence (P51575 1-399 K136A) with A136K, N184A
Particulars: for Normalized Current: hP2X1 N184A. The method, then:
as §1, §2, §3

`O=C(Nc1cc(C(=O)Nc2ccc(S(=O)(=O)O)cc2S(=O)(=O)O)cc(C(=O)Nc2ccc(S(=O)(=O)O)cc2S(=O)(=O)O)c1)Nc1cc(C(=O)Nc2ccc(S(=O)(=O)O)cc2S(=O)(=O)O)cc(C(=O)Nc2ccc(S(=O)(=O)O)cc2S(=O)(=O)O)c1` [NF449, 4,4’,4”,4’’’-(carbonylbis(imino-5,1,3-benzenetriylbis(carbonylimino)))tetrakis-benzene-1,3-disulfonic acid]: the entries for the “reduction in inhibitory potency (IC50) of NF449” value on hP2X1 K136A (hP2X1 K136A vs wild-type) and on hP2X1 K309A (hP2X1 K309A vs wild-type) were 39 fold and 5 fold, respectively. Also, the “Normalized Current” value was 1 at hP2X1 K136A ([NF449] 1.600E-09 M); 0.205 and 0.1861 and 0.1104 at hP2X1 K136A ([NF449] 2.000E-07 M); 0.9716 and 0.9527 and 0.8864 at hP2X1 K136A ([NF449] 3.200E-10 M); 0.5079 and 0.4606 and 0.4322 at hP2X1 K136A ([NF449] 4.000E-08 M); 0.7634 and 0.7445 and 0.5647 on hP2X1 K136A ([NF449] 8.000E-09 M); 0.4929 and 0.4694 and 0.363 at hP2X1 K136A/R139A ([NF449] 1.000E-06 M). The “Normalized Current” value at hP2X1 K136A/R139A ([NF449] 2.000E-07 M) was 0.8009 and 0.7536 and 0.7046; at hP2X1 K136A/R139A ([NF449] 4.000E-08 M), 1.069 and 1.018 and 0.8793; at hP2X1 K136A/R139A ([NF449] 6.246E-06 M), 0.148 and 0.1446 and 0.1086; at hP2X1 K136A/R139A ([NF449] 8.000E-09 M) it was 1.104 and 1.01 and 0.886; on hP2X1 K309A ([NF449] 1.600E-09 M), 0.804 and 0.6904 and 0.632; on hP2X1 K309A ([NF449] 3.200E-10 M) it was 1.021 and 0.9283 and 0.8888. Also, the “Normalized Current” value on hP2X1 K309A ([NF449] 6.400E-11 M) is 1.062 and 1.037 and 0.9009; at hP2X1 K309A ([NF449] 8.000E-09 M), 0.3679 and 0.3618 and 0.2758; at hP2X1 N184A ([NF449] 1.280E-11 M), 1.058 and 0.9967 and 0.9456; on hP2X1 N184A ([NF449] 1.600E-09 M), 0.7543 and 0.7296; on hP2X1 N184A ([NF449] 3.200E-10 M) it was 0.9687 and 0.7936 and 0.7686; at hP2X1 N184A ([NF449] 4.000E-08 M) it was 0.04235 and 0.03835 and 0.03234. The “Normalized Current” value was 0.9352 and 0.9156 and 0.8436 on hP2X1 N184A ([NF449] 6.400E-11 M); 0.4048 and 0.3885 and 0.3164 at hP2X1 N184A ([NF449] 8.000E-09 M). Besides, the “decrease in inhibitory potency of NF449” value on hP2X1 K136A/R139A (hP2X1 K136A/R139A vs wild-type) turned out to be 990 fold. Also, the “reduction in inhibitory potency of NF449” value on hP2X1 N184A (hP2X1 N184A vs wild-type) is listed as ~ 6 fold.
